ChEMBL document CHEMBL1201862, “PubChem BioAssay data set” (2004)
Activity calls are given as the source filed them. Rule as the data show it: actives have a measured IC50 and inactives only a lower limit.

Molecular target: Envelope glycoprotein gp160 (Human immunodeficiency virus 1, UniProt Q6QLK5)
Test: inhibitors of HIV fusion peptide binding, primary screen, biochemical, uHTS, fluorescence dequenching (AID 1986)

Chain of Envelope glycoprotein gp160 (Q6QLK5 whole entry, the tested form may be a part): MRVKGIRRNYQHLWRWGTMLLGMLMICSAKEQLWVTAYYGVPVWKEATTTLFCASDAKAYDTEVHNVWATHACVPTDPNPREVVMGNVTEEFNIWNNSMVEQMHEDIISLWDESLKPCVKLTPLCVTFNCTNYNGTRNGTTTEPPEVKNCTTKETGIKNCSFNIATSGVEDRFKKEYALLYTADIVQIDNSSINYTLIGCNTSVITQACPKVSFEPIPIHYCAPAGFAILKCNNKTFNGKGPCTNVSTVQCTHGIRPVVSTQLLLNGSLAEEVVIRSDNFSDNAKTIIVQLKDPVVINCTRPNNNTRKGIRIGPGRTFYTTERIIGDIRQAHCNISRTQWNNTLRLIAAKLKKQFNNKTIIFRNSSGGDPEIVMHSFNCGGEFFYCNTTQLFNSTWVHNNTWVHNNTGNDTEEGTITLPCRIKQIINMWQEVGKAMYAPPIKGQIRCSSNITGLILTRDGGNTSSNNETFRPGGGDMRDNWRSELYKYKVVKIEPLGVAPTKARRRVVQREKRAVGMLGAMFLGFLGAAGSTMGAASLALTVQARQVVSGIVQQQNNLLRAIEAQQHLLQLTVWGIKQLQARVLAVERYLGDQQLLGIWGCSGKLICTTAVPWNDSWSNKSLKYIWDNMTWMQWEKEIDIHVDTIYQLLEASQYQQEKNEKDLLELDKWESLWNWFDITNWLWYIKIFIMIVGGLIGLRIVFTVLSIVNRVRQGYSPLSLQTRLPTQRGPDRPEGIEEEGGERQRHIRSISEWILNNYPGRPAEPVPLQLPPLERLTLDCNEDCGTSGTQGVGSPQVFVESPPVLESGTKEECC

Question: With O=C(N/N=C/c1ccc(-c2ccc(S(=O)(=O)Nc3ncccn3)cc2)o1)c1cc2ccccc2cc1O as the compound, how does the IC50 read?
Answer: 5.36 µM (active)
